The source of these data is ChEMBL document CHEMBL4725244, “Immunomodulation-mediated anticancer activity of a novel compound from Brugmansia suaveolens leaves” (Bioorg Med Chem, 2020).

The nature of data set [1]: Immunomodulation-mediated anticancer activity against human MCF7 cells assessed as human PBMC-mediated cell cycle arrest by measuring increase in proportion of cells at subG1 phase at 10 uM pretreated with effector PBMC cells for 48 hrs followed by co-culturing of target cancer cells with PBMC at ratio of 1:10 for 24 hrs by propidium iodide staining based flow cytometry relative to control. Format: functional. On the technique in general: In flow cytometry, cells or beads pass a laser one at a time.

A short description of data set [2]: Immuno-modulation activity in human PBMC assessed as increase in cell proliferation at 10 uM after 48 hrs by MTT assay relative to control. The data set is classed as functional. On the technique in general: Tetrazolium dyes change colour on reduction, which living cells bring about.
The nature of data set [3]: Immunomodulation-mediated anticancer activity against human MCF7 cells assessed as human PBMC-mediated cell cycle arrest by measuring proportion of cells at subbG1 phase at 10 uM pretreated with effector PBMC cells for 48 hrs followed by co-culturing of target cancer cells with PBMC at ratio of 1:10 for 24 hrs by propidium iodide staining based flow cytometry (reference value: 4.8%). Format: functional.

Data set [4] can be described thus: Immunomodulation-mediated anticancer activity against human MCF7 cells assessed as human PBMC-mediated decrease in mitochondrial membrane potential at 10 uM pretreated with effector PBMC cells for 6 hrs followed by co-culturing of target cancer cells with PBMC at ratio of 1:10 for 24 hrs by rhodamine 123 staining based fluorometric analysis (reference value: 5%). The data set is classed as functional.

Data set [5] can be described thus: Immuno-modulation activity in human PBMC assessed as increase in IFNgamma secretion at 10 uM after 48 hrs by ELISA relative to control. Format: functional.
Data set [6] can be described thus: Cytotoxicity against human MCF7 cells assessed as reduction in cell viability at 5 to 20 uM measured after 24 hrs by MTT assay relative to control. The data set is classed as cell-based. Particulars: dose 5-20 µM, read-out: INH.
For the next data set, the system named is A549. As to the kind of experiment: Immunomodulation-mediated anticancer activity against human A549 cells assessed as human PBMC-mediated inhibition of cancer cell viability at 10 uM pretreated with effector PBMC cells for 48 hrs followed by co-culturing of target cancer cells with PBMC at ratio of 1:10 and measured after 24 hrs by […] (reference value: 5%). Format: functional. (An ELISA detects its analyte on a solid surface through an enzyme-linked reagent.)

The nature of data set [7]: Immunomodulation-mediated anticancer activity against human MCF7 cells assessed as human PBMC-mediated cell cycle arrest by measuring proportion of cells at G2M phase at 10 uM pretreated with effector PBMC cells for 48 hrs followed by co-culturing of target cancer cells with PBMC at ratio of 1:10 for 24 hrs by propidium iodide staining based flow cytometry (reference value: 10.5%). Format: functional.

Data set [8] can be described thus: Immunomodulation-mediated anticancer activity against human MCF7 cells assessed as human PBMC-mediated inhibition of cancer cell viability at 10 uM pretreated with effector PBMC cells for 48 hrs followed by co-culturing of target cancer cells with PBMC at ratio of 1:10 and measured after 24 hrs by MTT assay (reference value: 5%). Format: functional.
Data set [9] is described as follows: Immunomodulation-mediated anticancer activity against human MCF7 cells assessed as human PBMC-mediated inhibition of cancer cell viability at 10 uM pretreated with effector PBMC cells for 48 hrs followed by co-culturing of target cancer cells with PBMC at ratio of 1:2.5 to 1:20 and measured after 24 hrs by MTT assay. Format: functional.
Data set [10] can be described thus: Immuno-modulation activity in human PBMC assessed as increase in IL-2 secretion at 10 uM after 48 hrs by ELISA relative to control. Format: functional.
Data set [11] in a line: Immunomodulation-mediated anticancer activity against human MCF7 cells assessed as human PBMC-mediated increase in ROS generation at 10 uM pretreated with effector PBMC cells for 48 hrs followed by co-culturing of target cancer cells with PBMC at ratio of 1:10 for 6 hrs by DCFH-DA staining based fluorometric analysis (reference value: 7%). The data set is classed as functional.

A further data set deals with PBMC. As to the kind of experiment: Immuno-modulation activity in human PBMC assessed as increase in cell proliferation at 20 uM after 48 hrs by MTT assay. Format: functional, tissue-based.
The nature of data set [12]: Immunomodulation-mediated anticancer activity against human MCF7 cells assessed as human PBMC-mediated cell cycle arrest by measuring proportion of cells at G0G1 phase at 10 uM pretreated with effector PBMC cells for 48 hrs followed by co-culturing of target cancer cells with PBMC at ratio of 1:10 for 24 hrs by propidium iodide staining based flow cytometry (reference value: 64.6%). Format: functional.

The nature of data set [13]: Immunomodulation-mediated anticancer activity against human MCF7 cells assessed as human PBMC-mediated cell cycle arrest by measuring proportion of cells at S phase at 10 uM pretreated with effector PBMC cells for 48 hrs followed by co-culturing of target cancer cells with PBMC at ratio of 1:10 for 24 hrs by propidium iodide staining based flow cytometry (reference value: 19.6%). The data set is classed as functional.

Calls of active or inactive are those of the source. The calls are words filed in the database; no cut-off is given here.

Broadly, the inhibition is the percentage by which the read-out fell short of the control. Turning to `COc1ccc(OC)c2c1OC(=O)CC[C@H](O)C2=O`, the “fold change (FC)” value in [1] came out at 5; in data set [5], 3; in data set [10], 3. Besides, the Activity in data set [2] is reported as 92%; in data set [3], 28.4%; in data set [7] it was 59%; in data set [9], “<=70%”; in data set [11], 79%; in data set [12], 51.8%. Further, in [13], the Activity is recorded as 13.2%. Besides, the figures for the inhibition at 10 µM (in data set [4]; in the data set on A549; in [8]) were 66%, 32% and 67%, respectively. In addition, the cytotoxicity at 24 h, up to 20 µM in data set [6] is less than 30%. For the same molecule, the outcome in the data set with PBMC was Active.
